Key:
[1] = molecular target: GDP-bound HRAS wild-type protein (Homo sapiens, UniProt P01112); assay: Binding to HRAS by surface plasmon resonance (SPR), Single Cycle Kinetics; details: SPR KD ratio HRAS/KRAS, class symbols
[2] = molecular target: GDP-bound NRAS wild-type protein (Homo sapiens, UniProt P01111); assay: Binding to NRAS by surface plasmon resonance (SPR), Single Cycle Kinetics; details: SPR KD ratio NRAS/KRAS, class symbols
GDP-bound NRAS wild-type protein, sequence (P01111 whole entry): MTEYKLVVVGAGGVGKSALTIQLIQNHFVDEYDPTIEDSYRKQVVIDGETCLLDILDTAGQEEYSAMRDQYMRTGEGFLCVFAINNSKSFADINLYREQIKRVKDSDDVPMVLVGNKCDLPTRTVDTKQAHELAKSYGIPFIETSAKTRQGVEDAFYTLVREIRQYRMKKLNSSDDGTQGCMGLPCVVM

GDP-bound HRAS wild-type protein, sequence (P01112 whole entry): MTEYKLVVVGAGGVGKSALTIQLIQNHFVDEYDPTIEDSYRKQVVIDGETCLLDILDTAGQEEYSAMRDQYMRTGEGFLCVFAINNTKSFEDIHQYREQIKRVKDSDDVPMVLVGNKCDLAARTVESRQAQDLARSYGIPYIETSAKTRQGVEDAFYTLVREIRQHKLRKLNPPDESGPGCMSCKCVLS

CCO[C@@H]1C[C@H]2C(=O)NC3(CCC3)C(=O)N(C)[C@@H](C3CCCC3)C(=O)N(C)[C@H](C(=O)N(C)C)CC(=O)N(C)[C@@H](CC3CCCC3)C(=O)N[C@@H]([C@@H](C)CC)C(=O)N(C)CC(=O)N(C)[C@H]3C/C=C\CCN(C3=O)[C@@H](Cc3ccc(C)cc3)C(=O)N(C)CC(=O)N[C@@H](CCc3ccc(C(F)(F)F)c(CC)c3)C(=O)N2C1 [PP2672]
HRAS/KRAS (ratio of KD value with respect to GDP-bound HRAS wild-type protein to KD value with respect to KRAS) [1]: B (a compound having 3 or more and less than 10 is denoted as B)
NRAS/KRAS (ratio of KD value with respect to GDP-bound NRAS wild-type protein to KD value with respect to KRAS) [2]: B (a compound having 3 or more and less than 10 is denoted as B)

CCO[C@@H]1C[C@H]2C(=O)NC3(CCC3)C(=O)N(C)[C@@H](C3CCCC3)C(=O)N(C)[C@H](C(=O)N(C)C)CC(=O)N(C)[C@@H](CC3CCCC3)C(=O)N[C@@H]([C@@H](C)CC)C(=O)N(C)CC(=O)N(C)[C@H]3C/C=C\CCN(C3=O)[C@@H](Cc3ccc(C)cc3)C(=O)N(C)CC(=O)N[C@@H](CCc3ccc(C4CC4)c(Cl)c3)C(=O)N2C1 [PP2684]
HRAS/KRAS (ratio of KD value with respect to GDP-bound HRAS wild-type protein to KD value with respect to KRAS) [1]: A (a compound having 10 or more and less than 20 is denoted as A)
NRAS/KRAS (ratio of KD value with respect to GDP-bound NRAS wild-type protein to KD value with respect to KRAS) [2]: A (a compound having 10 or more and less than 20 is denoted as A)

CCO[C@@H]1C[C@H]2C(=O)NC3(CCC3)C(=O)N(C)[C@@H](C3CCCC3)C(=O)N(C)[C@H](C(=O)N(C)C)CC(=O)N(C)[C@@H](CC3CCCC3)C(=O)N[C@@H]([C@@H](C)CC)C(=O)N(C)CC(=O)N(C)[C@H]3C/C=C\CCN(C3=O)[C@@H](Cc3ccc(C)cc3)C(=O)N(C)CC(=O)N[C@@H](CCc3ccc(CC)c(F)c3)C(=O)N2C1 [PP2686]
HRAS/KRAS (ratio of KD value with respect to GDP-bound HRAS wild-type protein to KD value with respect to KRAS) [1]: A (a compound having 10 or more and less than 20 is denoted as A)
NRAS/KRAS (ratio of KD value with respect to GDP-bound NRAS wild-type protein to KD value with respect to KRAS) [2]: A (a compound having 10 or more and less than 20 is denoted as A)

CCO[C@@H]1C[C@H]2C(=O)NC3(CC(C)(C)C3)C(=O)N(C)[C@@H](C3CCCC3)C(=O)N(C)[C@H](C(=O)N(C)C)CC(=O)N(C)[C@@H](CC(C)C)C(=O)N[C@@H]([C@@H](C)CC)C(=O)N(C)CC(=O)N(C)[C@H]3C/C=C\CCN(C3=O)[C@@H](Cc3ccc(C)cc3F)C(=O)N(C)CC(=O)N[C@@H](CCc3ccc(C(F)(F)F)c(OC)c3)C(=O)N2C1 [PP2688]
HRAS/KRAS (ratio of KD value with respect to GDP-bound HRAS wild-type protein to KD value with respect to KRAS) [1]: B (a compound having 3 or more and less than 10 is denoted as B)
NRAS/KRAS (ratio of KD value with respect to GDP-bound NRAS wild-type protein to KD value with respect to KRAS) [2]: A (a compound having 10 or more and less than 20 is denoted as A)

CCO[C@@H]1C[C@H]2C(=O)NC3(CC(C)(C)C3)C(=O)N(C)[C@@H](C3CCCC3)C(=O)N(C)[C@H](C(=O)N(C)C)CC(=O)N(C)[C@@H](CC(C)C)C(=O)N[C@@H]([C@@H](C)CC)C(=O)N(C)CC(=O)N(C)[C@H]3C/C=C\CCN(C3=O)[C@@H](Cc3ccc(C4CC4)cc3)C(=O)N(C)CC(=O)N[C@@H](CCc3ccc(C(F)(F)F)c(OC)c3)C(=O)N2C1 [PP2691, (2S,8S,12R,14S,20S,23S,27S,30S,36S,38Z)-20-cyclopentyl-2-[(4-cyclopropylphenyl)methyl]-12-ethoxy-27-isobutyl-8-[2-[3-methoxy-4-(trifluoromethyl)phenyl]ethyl]-N,N,3′,3′,4,19,22,26,32,35-decamethyl-30-[(1S)-1-methylpropyl]-3,6,9,15,18,21,25,28,31,34,42-undecaoxo-spiro[1,4,7,10,16,19,22,26,29,32,35-undecazatricyclo[34.5.1.0^10,14]dotetracont-38-ene-17,1′-cyclobutane]-23-carboxamide]
HRAS/KRAS (ratio of KD value with respect to GDP-bound HRAS wild-type protein to KD value with respect to KRAS) [1]: A (a compound having 10 or more and less than 20 is denoted as A)
NRAS/KRAS (ratio of KD value with respect to GDP-bound NRAS wild-type protein to KD value with respect to KRAS) [2]: AA (a compound having 20 or more is denoted as AA)

Reference: patent publication US20240158446A1, “CYCLIC COMPOUND HAVING SELECTIVE INHIBITORY ACTION ON KRAS OVER HRAS AND NRAS” (CHUGAI SEIYAKU KABUSHIKI KAISHA, priority 2021, published 2024)
